Data reported in US7598234B2, “Steroid derived antibiotics” (Brigham Young University, priority 1998, dated 2009).
Converted amounts (≈) assume the structure as drawn.

Key:
[1] = test system: Pseudomonas aeruginosa ATCC 27853; assay: Growth inhibition and FIC with rifampicin, Pseudomonas aeruginosa ATCC 27853; type: cell-based; settings: Table 13, Pseudomonas aeruginosa ATCC 27853^b; for FIC: rifampicin (by order); for concentration required to inhibit bacterial growth with antibiotic: rifampicin (by order) at 0.5, 1.0 or 3.0 μg/mL
Description: (§1) Alternatively, “fractional inhibitory concentration (FIC)” is also useful for determination of synergy between the compounds of the invention, or the compounds in combination with known antibiotics. FICs can be performed by checkerboard titrations of compounds in one dimension of a microtiter plate, and of antibiotics in the other dimension, for example. The FIC is calculated by looking at the impact of one antibiotic on the MIC of the other and vice versa. […] Preferably, an FIC of less than 0.5 is obtained for synergism. As used herein, FIC can be determined as follows:
(§2) Aliquots of 1 mL of the suspension were added to test tubes containing 1 mL TSB and incrementally varied concentrations of cholic acid derivatives and/or erythromycin or novobiocin. In the sensitization experiments, erythromycin or novobiocin were added 15 minutes later than the cholic acid derivatives. The samples were subjected to stationary incubation at 37° C. for 24 hours. Sample turbidity was determined by measuring absorption at 760 nm (HP 8453 UV-Visible Chemstation, Hewlett Packard). Additionally, an alliquot from each of the samples showing no measurable turbidity was subcultured on TSA plates (alliquots were diluted to provide fewer than 300 CFU). Colonies that grew on the subculture after overnight incubation were counted and the number of CFU/mL in the samples were calculated. The calculated values were compared to the number of CFU/mL in the original inoculum.
(§3) To measure permeabilization, the FIC values for compounds 1, 2, 5, 106, 10, 112, 133, and 134 with erythromycin, novobiocin, and rifampicin were determined. Concentrations of 0.5, 1.0 or 3.0 μg/mL of these antibiotics were used, and the concentrations of the cholic acid derivatives required to inhibit bacterial growth of Gram-negative strains were determined.

[2] = test system: Pseudomonas aeruginosa (ATCC 27853); assay: MIC and MBC measurement with Pseudomonas aeruginosa (ATCC 27853); type: cell-based
How it was run: (§4)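 Strains kept on Mueller-Hinton agar (Candida on Sabouraud dextrose agar); suspension mixed 1:1 with TSB containing serial compound concentrations; 37° C., 24 h, no shaking; turbidity A760; clear tubes plated on TSA, colonies counted, CFU/mL vs inoculum.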

[3] = test system: Klebsiella pneumonia ATCC 13883; assay: MIC and MBC measurement with Klebsiella pneumoniae ATCC 13883; type: cell-based; settings: Table 10
How it was run: as §4

[4] = Description: Minimum inhibition concentrations (MIC) and minimum hemolytic concentrations (MHC) were measured as described in Li et al., Antimicrob. Agents. Chemother., 1999, 43, 1347.
[5] = test system: Salmonella typhimurium ATCC 14028; assay: Growth inhibition and FIC with rifampicin, Salmonella typhimurium ATCC 14028; type: cell-based; settings: Table 13, Salmonella typhimurium ATCC 14028^b; for FIC: rifampicin (by order); for concentration required to inhibit bacterial growth with antibiotic: rifampicin (by order) at 0.5, 1.0 or 3.0 μg/mL
Description: as §1, §2, §3

[6] = test system: Salmonella typhimurium ATCC 14028; assay: MIC and MBC measurement with Salmonella typhimurium ATCC 14028; type: cell-based; settings: Table 10
How it was run: as §4

[7] = test system: Staphylococcus aureus ATCC 25923; assay: MIC and MBC measurement with Staphylococcus aureus ATCC 25923; type: cell-based; settings: Table 10; Staphylococcus aureus ATCC 25923
How it was run: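 Bacteria incubated statically 24 h at 37 °C in TSB with graded compound concentrations (erythromycin or novobiocin added 15 min later in sensitization runs). MIC from turbidity at 760 nm; MBC by subculturing clear samples on TSA and comparing CFU/mL to inoculum.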

[8] = test system: Klebsiella pneumonia ATCC 13883; assay: Growth inhibition and FIC with novobiocin, Klebsiella pneumoniae ATCC 13883; type: cell-based; settings: Table 12, novobiocin (by order) at 0.5, 1.0 or 3.0 μg/mL
Description: as §1, §2, §3

[9] = test system: Enterococcus faecalis ATCC 29212; assay: MIC and MBC measurement with Enterococcus faecalis ATCC 29212; type: cell-based; settings: Table 10
Source text: (§5) General: Microorganisms. Reference strains were purchased from the American Type Culture Collection (Rockville, Md.) or Bactrol disks from Difeo Laboratories (Detroit, Mich.). The following specific ATCC strains were used: 10798 Escherichia coli, 25922 Escherichia coli, 13883 Klebsiella pneumoniae, 27853 Pseudomonas aeruginosa, 14028 Salmonella typhimurium, 29212 Enterococcus faecalis, 25923 Staphylococcus aureus, 19615 Streptococcus pyogenes, and 90028 Candida albicans. Bacterial strains were maintained on Mueller-Hinton agar plates, and Candida albicans was maintained on Sabouraud Dextrose agar plates.
(§6) Tryptic soy broth (TSB) was made by dissolving 27.5 grams of tryptic soy broth without dextrose (DIFCO Laboratories) in 1 liter of deionized water and sterilizing at 121° C. for 15 minutes. Solid agar (TSA) plates were made by dissolving 6.4 grams of tryptic soy broth and 12 grams of agar (purified grade, Fischer Scientific) in 800 mL of deionized water and sterilizing at 121° C. for 20 minutes. Aliquots (20 mL) of the homogeneous solution were then poured in sterile plastic petri dishes (100×15 mm, Fisher Scientific). Solutions of compounds were made by dissolving the HCl salt of the respective compound into an appropriate amount of deionized and sterilized water followed by microfiltration.
as §2

[10] = test system: Streptococcus pyrogenes ATCC 19615; assay: MIC and MBC measurement with Streptococcus pyogenes ATCC 19615; type: cell-based; settings: Table 10
Source text: as §5, §6, §2

[11] = test system: E. coli (ATCC 10798); assay: Sensitization to novobiocin (concentration lowering the MIC of novobiocin), E. coli (ATCC 10798); type: cell-based, Escherichia coli; settings: for (d) Concentration required to lower the MIC of novobiocin from >500 to 1 μg/mL / FIC values with novobiocin: Table 9, Escherichia coli (ATCC 10798); for MIC: concentration required to lower the MIC of novobiocin from >500 μg/mL to 1 μg/mL / MBC (with novobiocin): Table 3, E. coli (ATCC 10798); for MBC (with novobiocin): novobiocin sensitization
[12] = test system: Pseudomonas aeruginosa (ATCC 27853); assay: Sensitization to erythromycin, Pseudomonas aeruginosa (ATCC 27853); type: cell-based; settings: for FIC / concentration required to inhibit bacterial growth with antibiotic: Table 11, Pseudomonas aeruginosa ATCC 27853; for FIC: erythromycin (by order); for concentration required to inhibit bacterial growth with antibiotic: erythromycin (by order) at 0.5, 1.0 or 3.0 μg/mL; for MIC: concentration required to lower the MIC of erythromycin from 240 μg/mL to 5 μg/mL / MBC (with erythromycin): Table 7, P. aureginosa (ATCC 27853); for MBC (with erythromycin): erythromycin sensitization
How it was run: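 Tube checkerboard in TSB: cholic acid derivatives added, then erythromycin or novobiocin 15 min later, antibiotics at 0.5, 1.0 or 3.0 μg/mL; stationary 37 °C, 24 h. Turbidity read at 760 nm; clear samples subcultured on TSA for CFU counts versus inoculum; FIC derived for synergy.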

[13] = Table 10, Pseudomonas aeruginosa ATCC 27853
[14] = Table 6, P. aureginosa (ATCC 27853)

SMILES | FIC [1] | concentration required to inhibit bacterial growth with antibiotic [1] [µg/mL] | MBC [2, 13] [µg/mL] | MIC [2, 13] [µg/mL] | MBC [3] [µg/mL] | MIC [3] [µg/mL] | MHC [4] [µg/mL] | FIC [5] | concentration required to inhibit bacterial growth with antibiotic [5] [µg/mL] | MBC [6] [µg/mL] | MIC [6] [µg/mL] | MBC [7] [µg/mL] | MIC [7] [µg/mL] | concentration required to inhibit bacterial growth with antibiotic [8] [µg/mL] | MBC [9] [µg/mL] | MIC [9] [µg/mL] | MBC [10] [µg/mL] | MIC [10] [µg/mL] | FIC [12] | concentration required to inhibit bacterial growth with antibiotic [12] [µg/mL] | further results
CCCOCCC[C@@H](C)[C@H]1CC[C@H]2[C@@H]3[C@H](OCCCN)C[C@@H]4C[C@H](OCCCN)CC[C@]4(C)[C@H]3C[C@H](OCCCN)[C@]12C [Compound 112] | 0.15 | 0.50 | 6.4 (≈ 10.5 µM) | 4.6 (≈ 7.57 µM) | 27 (≈ 44.4 µM) | 23 (≈ 37.8 µM) | 5.9 | 0.051 | 0.10 | 90 (≈ 148 µM) | 86 (≈ 141 µM) | 4.2 (≈ 6.91 µM) | 0.55 (≈ 0.905 µM) | 0.19 | 4.7 (≈ 7.73 µM) | 3.1 (≈ 5.1 µM) | 3.0 (≈ 4.93 µM) | 2.4 (≈ 3.95 µM) | 0.59 | 1.0 | (d) Concentration required to lower the MIC of novobiocin from >500 to 1 μg/mL [11]: 0.8 µg/mL; FIC values with novobiocin [11]: 0.085
C[C@H](CCCN(C)Cc1ccccc1)[C@H]1CC[C@H]2[C@@H]3[C@H](OCCCN)C[C@@H]4C[C@H](OCCCN)CC[C@]4(C)[C@H]3C[C@H](OCCCN)[C@]12C [Compound 2] | 0.086 | 0.50 | >17 | 11 (≈ 16.4 µM) | 17 (≈ 25.4 µM) | 14 (≈ 20.9 µM) | 58 | 0.079 | 0.39 | 16 (≈ 23.9 µM) | 13 (≈ 19.4 µM) | 4.7 (≈ 7.02 µM) | 1.0 (≈ 1.49 µM) | 0.49 | 19 (≈ 28.4 µM) | 3.4 (≈ 5.08 µM) | 2.3 (≈ 3.44 µM) | 2.0 (≈ 2.99 µM) | 0.25 | 2.4 | MBC [2, 14]: 40 µg/mL (≈ 59.8 µM); MIC [2, 14]: 9 µg/mL (≈ 13.5 µM); MIC: concentration required to lower the MIC of novobiocin from >500 μg/mL to 1 μg/mL [11]: 7 µg/mL; MBC (with novobiocin) [11]: 16 µg/mL; MIC: concentration required to lower the MIC of erythromycin from 240 μg/mL to 5 μg/mL [12]: 4 µg/mL; MBC (with erythromycin) [12]: 25 µg/mL
C[C@]12CC[C@@H](OCCCN)C[C@H]1C[C@@H](OCCCN)[C@@H]1[C@@H]2C[C@H](OCCCN)[C@]2(C)[C@@H](O)CC[C@@H]12 [Compound 106] | 0.17 | 11 | 97 (≈ 196 µM) | 85 (≈ 171 µM) | 100 (≈ 202 µM) | >100 | >100 | 0.064 | 1.4 | >100 | >100 | 54 (≈ 109 µM) | 8.6 (≈ 17.3 µM) | 8.9 | >100 | 12 (≈ 24.2 µM) | 37 (≈ 74.6 µM) | 18 (≈ 36.3 µM) | 0.22 | 16 | (d) Concentration required to lower the MIC of novobiocin from >500 to 1 μg/mL [11]: 50 µg/mL; FIC values with novobiocin [11]: 0.36
C[C@H](CCCN(C)Cc1ccccc1)[C@H]1CC[C@H]2[C@@H]3[C@H](OCCN)C[C@@H]4C[C@H](OCCN)CC[C@]4(C)[C@H]3C[C@H](OCCN)[C@]12C [Compound 1] | 0.096 | 1.5 | 38 (≈ 60.6 µM) | 26 (≈ 41.5 µM) | >36 | 24 (≈ 38.3 µM) | 78 | 0.089 | 0.84 | >25 | 21 (≈ 33.5 µM) | 5.7 (≈ 9.09 µM) | 3.1 (≈ 4.94 µM) | 4.7 | 50 (≈ 79.7 µM) | 4.9 (≈ 7.82 µM) | 4.4 (≈ 7.02 µM) | 3.0 (≈ 4.78 µM) | 0.29 | 6.6 | MBC [2, 14]: >50 µg/mL; MIC [2, 14]: 15 µg/mL (≈ 23.9 µM); MIC: concentration required to lower the MIC of novobiocin from >500 μg/mL to 1 μg/mL [11]: 20 µg/mL; MBC (with novobiocin) [11]: 34 µg/mL; MIC: concentration required to lower the MIC of erythromycin from 240 μg/mL to 5 μg/mL [12]: 8 µg/mL; MBC (with erythromycin) [12]: 45 µg/mL
